In US12157730B2, “Heteroaryl derivative, method for producing same, and pharmaceutical composition comprising same as effective component” (VORONOI INC., priority 2019, dated 2024):

target: T1, Ba/F3 cell EGFR Exon20 ins NPH (Homo sapiens, UniProt P00533, INS773NPH); assay: Ba/F3 cell proliferation suppression, EGFR Exon20 ins NPH; format: cell-based; conditions: GI50 class; Ba/F3 cell line with NPH inserted at Exon20 of EGFR; 72 hours
T1 construct: expressed in transfected cells; host or cells: Ba/F3
Method in brief: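 72 h compound exposure, 0.3 nM–50 um (12 points, 3:1 dilution in DMSO); viability by CellTiter-Glo luminescence. Ba/F3 medium: RPMI-1640, 10% FBS, 5 ng/ml IL-3, 1 ug/ml puromycin for transduced cells. GI50 vs control, n=3.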

SMILES	Ba/F3 (NPH) Activity
C=CC(=O)Nc1cc(Nc2cc(N3OCC[C@@H]3c3cccc(Cl)c3Cl)ncn2)c(OC)cc1N1CCN(C2CC2)[C@@H](C)C1 [compound 568, N-(2-((S)-4-cyclopropyl-3-methylpiperazine-1-yl)-5-((6-((R)-3-(2,3-dichlorophenyl)isoxazolidine-2-yl)pyrimidine-4-yl)amino)-4-methoxyphenyl) acrylamide]	A (GI50 < 50 nM)
C=CC(=O)Nc1cc(Nc2cc(N3OCC[C@@H]3c3cccc(C#N)c3)ncn2)c(OC)cc1N1CCC(N2C[C@@H]3C[C@H]2CO3)CC1 [compound 493, N-(2-(4-((1S,4S)-2-oxa-5-azabicyclo[2.2.1]heptane-5-yl)piperidine-1-yl)-5-((6-((R)-3-(3-cyanophenyl)isoxazolidine-2-yl)pyrimidine-4-yl)amino)-4-methoxyphenyl) acrylamide]	B (50 nM ≤ GI50 < 500 nM)
C=CC(=O)Nc1cc(Nc2cc(N3OCC[C@@H]3c3cccc(Cl)c3Cl)ncn2)c(OC)cc1N1CCN(CC)CC1 [compound 480, N-(5-((6-((R)-3-(2,3-dichlorophenyl)isoxazolidine-2-yl)pyrimidine-4-yl)amino)-2-(4-ethylpiperazine-1-yl)-4-methoxyphenyl) acrylamide]	A (GI50 < 50 nM)
C=CC(=O)Nc1cc(Nc2cc(N3OCC[C@@H]3c3ccc(F)c(Cl)c3F)ncn2)c(OC)cc1N1CCC(N2CCN(C3CC3)CC2)CC1 [Example 168]	A (GI50 < 50 nM)
C#Cc1cccc([C@H]2CCON2c2cc(Nc3cc(NC(=O)C=C)c(N(C)CCN(C)C)cc3OC)ncn2)c1 [compound 616, N-(2-((2-(dimethylamino)ethyl) (methyl)amino)-5-((6-((R)-3-(3-ethynylphenyl)isoxazolidine-2-yl)pyrimidine-4-yl)amino)-4-methoxyphenyl) acrylamide]	A (GI50 < 50 nM)
C=CC(=O)Nc1cc(Nc2cc(N3OCC[C@@H]3c3cccc(Cl)c3C)ncn2)c(OC)cc1N1CCC(N2CCN(C3CC3)[C@H](C)C2)CC1 [Example 152, N-(5-((6-((R)-3-(3-chloro-2-methylphenyl)isoxazolidine-2-yl)pyrimidine-4-yl)amino)-2-(4-((R)-4-cyclopropyl-3-methylpiperazine-1-yl)piperidine-1-yl)-4-methoxyphenyl) acrylamide]	A (GI50 < 50 nM)
C=CC(=O)Nc1cc(Nc2cc(N3OCC[C@@H]3c3cc(F)cc(F)c3)ncn2)c(OC)cc1N1CCC(N2C[C@@H]3C[C@H]2CN3C)CC1 [Example 260, N-(5-((6-((R)-3-(3,5-difluorophenyl)isoxazolidine-2-yl)pyrimidine-4-yl)amino)-4-methoxy-2-(4-((1S,4S)-5-methyl-2,5-diazabicyclo[2.2.1]heptane-2-yl)piperidine-1-yl)phenyl)acrylamide]	A (GI50 < 50 nM)
C=CC(=O)Nc1cc(Nc2cc(N3OCC[C@@H]3c3cc(F)cc(F)c3)ncn2)c(OC)cc1N1CCC(N2CCOC[C@@H]2C)CC1 [compound 843, N-(5-((6-((R)-3-(3,5-difluorophenyl)isoxazolidine-2-yl)pyrimidine-4-yl)amino)-4-methoxy-2-(4-((S)-3-methylmorpholino)piperidine-1-yl)phenyl) acrylamide]	A (GI50 < 50 nM)
C=CC(=O)Nc1cc(Nc2cc(N3OCC[C@@H]3c3cccc(C(F)(F)F)c3)ncn2)c(OC)cc1N1CCC(N2CCN(C3CC3)[C@H](C)C2)CC1 [compound 942, N-(2-(4-((R)-4-cyclopropyl-3-methylpiperazine-1-yl)piperidine-1-yl)-4-methoxy-5-((6-((R)-3-(3-(trifluoromethyl)phenyl)isoxazolidine-2-yl)pyrimidine-4-yl)amino)phenyl) acrylamide]	A (GI50 < 50 nM)
C=CC(=O)Nc1cc(Nc2cc(N3OCC[C@@H]3c3c(F)ccc(F)c3F)ncn2)c(OC)cc1N1CCN(CC)CC1 [compound 631, N-(2-(4-ethylpiperazine-1-yl)-4-methoxy-5-((6-((R)-3-(2,3,6-trifluorophenyl)isoxazolidine-2-yl)pyrimidine-4-yl)amino)phenyl)acrylamide]	B (50 nM ≤ GI50 < 500 nM)
C=CC(=O)Nc1cc(Nc2cc(N3OCC[C@@H]3c3ccc(F)cc3F)ncn2)c(OC)cc1N1CCN(C(C)=O)CC1 [compound 343]	A (GI50 < 50 nM)
C=CC(=O)Nc1cc(Nc2cc(N3OCC[C@@H]3c3ccc(F)c(Cl)c3F)ncn2)c(OC)cc1N1CCC(N2CCN(C3CCC3)CC2)CC1 [Example 193, N-(5-((6-((R)-3-(3-chloro-2,4-difluorophenyl)isoxazolidine-2-yl)pyrimidine-4-yl)amino)-2-(4-(4-cyclobutylpiperazine-1-yl)piperidine-1-yl)-4-methoxyphenyl) acrylamide]	A (GI50 < 50 nM)
C=CC(=O)Nc1cc(Nc2cc(N3OCC[C@@H]3c3cc(F)ccc3F)ncn2)c(OC)cc1N1CCC(N2CCOCC2)CC1 [compound 766, N-(5-((6-((R)-3-(2,5-difluorophenyl)isoxazolidine-2-yl)pyrimidine-4-yl)amino)-4-methoxy-2-(4-morpholinopiperidine-1-yl)phenyl)acrylamide]	A (GI50 < 50 nM)
C=CC(=O)Nc1cc(Nc2cc(N3OCC[C@@H]3c3cccc4ccccc34)ncn2)c(OC)cc1N1CCN(CC)CC1 [compound 444, N-(2-(4-ethylpiperazine-1-yl)-4-methoxy-5-((6-((R)-3-(naphthalene-1-yl)isoxazolidine-2-yl)pyrimidine-4-yl)amino)phenyl)acrylamide]	B (50 nM ≤ GI50 < 500 nM)
C=CC(=O)Nc1cc(Nc2cc(N3OCC[C@@H]3c3cccc4ccccc34)ncn2)c(OC)cc1N1CCC(N2C[C@@H]3C[C@H]2CO3)CC1 [compound 489, N-(2-(4-((1S,4S)-2-oxa-5-azabicyclo[2.2.1]heptane-5-yl)piperidine-1-yl)-4-methoxy-5-((6-((R)-3-(naphthalene-1-yl)isoxazolidine-2-yl)pyrimidine-4-yl)amino)phenyl)acrylamide]	A (GI50 < 50 nM)
C=CC(=O)Nc1cc(Nc2cc(N3OCC[C@@H]3c3cccc(F)c3F)ncn2)c(OC)cc1N1CCC(N2CCN(C)CC2)CC1 [compound 921, N-(5-((6-((R)-3-(2,3-difluorophenyl)isoxazolidine-2-yl)pyrimidine-4-yl)amino)-4-methoxy-2-(4-(4-methylpiperazine-1-yl)piperidine-1-yl)phenyl) acrylamide]	A (GI50 < 50 nM)
C=CC(=O)Nc1cc(Nc2cc(N3OCC[C@@H]3c3ccc(F)cc3)ncn2)c(OC)cc1N1CCC(N2CCC(N(C)C)CC2)CC1 [compound 870, N-(2-(4-(dimethylamino)-[1,4'-bipiperidine]-1'-yl)-5-((6-((R)-3-(4-fluorophenyl)isoxazolidine-2-yl)pyrimidine-4-yl)amino)-4-methoxyphenyl) acrylamide]	A (GI50 < 50 nM)
